In patent publication US20100168054A1, “Functionalized Beta 1,6 Glucosamine Disaccharides and Process for Their Preparation” (OM PHARMA, priority 2006, published 2010):

What was measured:
TLR4 = target: T1, TLR4 (Homo sapiens, UniProt O00206+Q9Y6Y9); test: HEK-MD2-TLR4-CD14 IL-8 secretion; assay type: cell-based; settings: 24 h
T1 construct: expressed in transfected cells; host or cells: HEK293
From the text: (§1) The HEK293 cell line was chosen for its null or low basal expression of the TLR genes. These cells enable efficient monitoring of TLR activity using ELISA analysis such as IL-8 titration or reporter-based systems that monitor TLR-induced NF-κB activation. HEK-TLR2 cells (Invivogen, Toulouse, France) are engineered HEK293 cells stably transfected with multiple genes from the TLR2 pathway that include TLR2 and genes participating in the recognition or involved in the signaling cascade. These cells secrete IL-8 after TLR2 stimulation. The experiments were performed according to manufacturers' instructions. Briefly, 2×10^4 cells/well (200 ul RPMI) are incubated at 37° C. during 3 days (5% CO2). The medium is removed, and 90 ul RPMi+5% FCS is added to the wells Then the agonists and controls are added (10 ul/well). The cells return to the incubator for 24 hours. The supernatants are collected and the IL-8 ELISA is performed according to manufacturer's instructions
HEK-MD2-TLR4-CD14 are highly sensitive to LPS. They were obtained by stable transfection of HEK293 cells with the TLR4, MD2 and CD14 genes and an NF-κB-inducible reporter system. They secrete IL-8. We used the same experimental procedure as for the other HEK cell lines described above.

TLR2 = target: T2, TLR2 (Homo sapiens, UniProt O60603); test: HEK-TLR2 IL-8 secretion; assay type: cell-based; settings: for IL-8 secretion, mean: 24 h
T2 construct: host or cells: HEK293
From the text: as §1

[1] = test system: THP1-Blue cells (express naturally both TLR2 and TLR4); test: THP1-Blue NF-κB/AP-1-inducible SEAP reporter; assay type: cell-based, human; settings: for Optical density read at 625 nm, mean of duplicates: 48 h
Description: A first series of experiment was performed on THP-1 cells, which express naturally both TLR2 and TLR4. THP-1 cells are human peripheral blood monocytic cells. Monocytes play a key role in innate immunity and express most TLRs at various levels. As for the primary cells, THP-1 cells activate NF-κB and other transcription factors in response to TLR ligands
To facilitate analysis of TLR response in monocytes, InvivoGen (Toulouse, France) provides THP-1 clones stably transfected with an NF-κB-inducible reporter system, called THP1-Blue™. THP-1 Blue cells were stably transfected with a reporter plasmid expressing a secreted embryonic alkaline phosphatase (SEAP) gene under the control of a promoter inducible by several transcription factors such as NF-κB and AP-1. Upon TLR stimulation, THP1-Blue™ cells activate transcription factors and subsequently the secretion of SEAP which is easily detectable when using QUANTI-Blue\u2122a medium that turns purple/blue in the presence of SEAP.
The cells were stimulated with the controls and compounds of the invention according to manufacturer's instructions. Results: Increased OD at 625 Nm after 48 Hours: The results for the controls (negative=LPS K12CD25 ultrapure, a TLR4 agonist; and PAM3CSK4=positive, a TLR2 agonist) are provided in the table below. The results (expressed as OD of arbitrary units) show the mean values (from duplicate measures) of Optical density read at 625 nm, 48 h after stimulation at 37° C. with the controls (up to 1000 ng/ml): […]

[2] = test system: human peripheral blood mononuclear cells (PBMC); test: TNF-α secretion by human PBMC (ELISA); assay type: cell-based; settings: for TNF-α: 24 h; for TNF-α induction (in words): 0.2, 2, 20 μg/ml
Summary of the method: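 Ficoll-isolated PBMC from healthy donors were cultured at 1×10^6 viable cells/well in RPMI-1640 with 10% FCS. Cells were incubated at 37° C. in 5% CO2 with compound at 0.2, 2 and 20 μg/mL. TNF-α in 24 h supernatants was measured by ELISA, with a detection limit of 8 pg/mL.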

[3] = test system: human peripheral blood mononuclear cells (PBMC); test: IL-6 secretion by human PBMC (ELISA); assay type: cell-based; settings: for IL6: 24 h; for IL-6 secretion (in words): 1, 5, 20 μg/ml
Description: Peripheral blood from healthy donors (Centre de transfusion, Hôpital Universitaire, Geneva) was centrifuged to get the buffy coat. The buffy coat was mixed with Hanks' balanced saline solution (HBSS, Sigma, Buchs, Switzerland), layered over Ficoll Paque Plus (Amersham Pharmacia) to 1.077 g/mL and centrifuged (2800 rpm, 20° C., 25 min). Cells harvested from the interphase were washed twice in HBSS at 800 rpm for 15 min at room temperature and the pelleted cells were resuspended in HBSS. The cell counts were performed using a Neubauer cell. All cell cultures were performed in RPMI-1640 medium supplemented with penicillin (100 U/mL), streptomycin (100 μg/mL), L-glutamine (2 mmol/L) and 10% fetal calf serum (FCS), all obtained from Sigma. For in vitro stimulation, the cells were cultured at a concentration of 1×10^6 viable cells/well.
PBMC were incubated at 37° C. and under 5% CO2 atmosphere with the controls (see below) and with the products of the invention at 1, 5, and 20 μg/mL for IL-6, and at 0.2, 2, and 20 μg/mL for TNF-α secretion. Medium: RPMI alone.
The surpernatants of the cultures were harvested after 24 h and the concentration of IL-6 and TNF-α were measured by an enzyme-linked immunosorbent assay (ELISA) (Human IL-6 and TNF-α ELISA Set, BD OptEIA, San Diego, USA), according to the manufacturer instructions. The detection limits were 10 and 8 pg/mL respectively.
PBMC are incubated at 37° C. and under 5% CO2 atmosphere with the products of the invention.
The supernatants of the cultures are harvested after 24 h and the concentration of IL-6 was measured by an enzyme-linked immunosorbent assay (ELISA) (Human IL-6 ELISA Set, BD OptEIA, San Diego, USA), according to the manufacturer instructions. The detection limit was 10 pg/mL.

T2 sequence (O60603 21-784): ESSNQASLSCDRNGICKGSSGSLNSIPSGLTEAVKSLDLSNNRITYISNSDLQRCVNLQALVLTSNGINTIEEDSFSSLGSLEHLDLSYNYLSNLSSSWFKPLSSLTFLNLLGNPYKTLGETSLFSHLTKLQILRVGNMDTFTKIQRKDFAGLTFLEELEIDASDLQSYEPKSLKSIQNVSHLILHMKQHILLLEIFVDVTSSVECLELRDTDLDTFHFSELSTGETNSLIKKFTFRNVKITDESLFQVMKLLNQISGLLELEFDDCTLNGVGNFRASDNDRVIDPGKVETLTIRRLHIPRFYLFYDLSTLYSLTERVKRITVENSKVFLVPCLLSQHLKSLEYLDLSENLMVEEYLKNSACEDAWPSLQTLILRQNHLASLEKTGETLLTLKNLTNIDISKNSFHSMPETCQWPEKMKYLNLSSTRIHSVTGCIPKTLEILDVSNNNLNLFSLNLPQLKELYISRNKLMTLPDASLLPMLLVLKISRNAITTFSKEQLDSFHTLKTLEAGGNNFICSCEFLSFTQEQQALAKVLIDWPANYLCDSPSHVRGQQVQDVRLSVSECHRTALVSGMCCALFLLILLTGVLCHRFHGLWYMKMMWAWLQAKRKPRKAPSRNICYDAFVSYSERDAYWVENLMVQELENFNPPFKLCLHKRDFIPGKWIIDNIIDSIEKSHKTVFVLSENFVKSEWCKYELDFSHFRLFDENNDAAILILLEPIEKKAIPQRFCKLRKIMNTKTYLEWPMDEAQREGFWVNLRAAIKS
T1 sequence (O00206 24-839): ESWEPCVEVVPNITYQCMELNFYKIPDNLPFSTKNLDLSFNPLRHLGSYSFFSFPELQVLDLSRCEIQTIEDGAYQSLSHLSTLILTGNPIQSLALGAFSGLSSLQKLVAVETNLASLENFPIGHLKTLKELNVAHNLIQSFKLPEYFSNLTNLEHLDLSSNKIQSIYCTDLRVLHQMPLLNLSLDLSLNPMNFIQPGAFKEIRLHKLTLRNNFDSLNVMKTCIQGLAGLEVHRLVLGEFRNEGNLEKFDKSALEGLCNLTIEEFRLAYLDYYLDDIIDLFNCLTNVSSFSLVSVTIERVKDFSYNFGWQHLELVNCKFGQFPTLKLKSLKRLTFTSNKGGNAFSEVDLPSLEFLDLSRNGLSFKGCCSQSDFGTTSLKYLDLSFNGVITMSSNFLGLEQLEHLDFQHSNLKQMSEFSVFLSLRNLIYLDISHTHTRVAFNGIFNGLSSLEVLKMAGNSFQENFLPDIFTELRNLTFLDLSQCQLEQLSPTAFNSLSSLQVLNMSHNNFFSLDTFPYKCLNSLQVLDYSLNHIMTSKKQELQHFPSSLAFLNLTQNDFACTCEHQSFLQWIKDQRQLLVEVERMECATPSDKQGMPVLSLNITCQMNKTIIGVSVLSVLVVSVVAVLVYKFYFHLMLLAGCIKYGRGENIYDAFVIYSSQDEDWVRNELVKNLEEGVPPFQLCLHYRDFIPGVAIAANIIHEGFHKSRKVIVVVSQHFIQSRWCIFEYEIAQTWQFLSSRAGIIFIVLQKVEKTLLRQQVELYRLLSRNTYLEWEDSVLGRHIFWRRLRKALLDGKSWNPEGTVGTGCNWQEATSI
T1 sequence (Q9Y6Y9 17-160 limits assumed): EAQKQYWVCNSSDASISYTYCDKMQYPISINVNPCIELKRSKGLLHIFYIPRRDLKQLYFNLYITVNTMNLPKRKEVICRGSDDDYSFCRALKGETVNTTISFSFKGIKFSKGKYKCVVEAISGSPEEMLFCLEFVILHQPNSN

Row | Structure (SMILES) | IL-8 secretion, mean (TLR4; 14 ng/ml) [pg/mL] | IL-8 secretion, mean (TLR4; 41 ng/ml) [pg/mL] | IL-8 secretion, mean (TLR4; 124 ng/ml) [pg/mL] | IL-8 secretion, mean (TLR4; 370 ng/ml) [pg/mL] | IL-8 secretion, mean (TLR4; 1111 ng/ml) [pg/mL] | IL-8 secretion, mean (TLR4; 3333 ng/ml) [pg/mL] | IL-8 secretion, mean (TLR4; 10000 ng/ml) [pg/mL] | IL-8 secretion, mean (TLR2; 14 ng/ml) [pg/mL] | IL-8 secretion, mean (TLR2; 41 ng/ml) [pg/mL] | IL-8 secretion, mean (TLR2; 124 ng/ml) [pg/mL] | IL-8 secretion, mean (TLR2; 370 ng/ml) [pg/mL] | IL-8 secretion, mean (TLR2; 1111 ng/ml) [pg/mL] | IL-8 secretion, mean (TLR2; 3333 ng/ml) [pg/mL] | IL-8 secretion, mean (TLR2; 10000 ng/ml) [pg/mL] | activation of THP-1 cells (in words) [1] | Optical density read at 625 nm, mean of duplicates ([1]; 14 ng/ml) [OD] | Optical density read at 625 nm, mean of duplicates ([1]; 41 ng/ml) [OD] | Optical density read at 625 nm, mean of duplicates ([1]; 124 ng/ml) [OD] | Optical density read at 625 nm, mean of duplicates ([1]; 370 ng/ml) [OD] | Optical density read at 625 nm, mean of duplicates ([1]; 1111 ng/ml) [OD] | further results
1 | CCCCCCCCCCCC(=O)O[C@H](CCCCCCCCCCC)CC(=O)N[C@H]1[C@H](OC[C@H]2O[C@H](OCCC)[C@H](NC(=O)C[C@H](O)CCCCCCCCCCC)[C@@H](O)[C@@H]2O)O[C@H](CO)[C@@H](OP(=O)(O)O)[C@@H]1O [compound 17, Propyl-2-Deoxy-6-O-[2-deoxy-4-O-(dihydroxyphosphoryl)-2-[(R)-3-dodecanoyloxytetradecanoylamino]-β-D-glucopyranosyl]-2-[(R)-3-hydroxytetradecanoylamino]-α-D-glucopyranoside] | 1.88 | 1.97 | 1.93 | 1.85 | 1.94 | 1.89 | 1.70 | 0.19 | 0.20 | 0.24 | 0.25 | 0.39 | 0.88 | 2.02 | good activators of THP-1 cells | 0.13 | 0.15 | 0.19 | 0.36 | 0.74 | activation of IL-8 secretion via TLR2 (in words) (TLR2; HEK-TLR2): able to activate IL-8 secretion via TLR2; Optical density read at 625 nm, mean of duplicates ([1]; 3333 ng/ml): 1.02 OD; Optical density read at 625 nm, mean of duplicates ([1]; 10000 ng/ml): 1.15 OD; TNF-α ([2]; 0.2 μg/ml): 46 pg/mL; TNF-α ([2]; 2 μg/ml): 474 pg/mL; TNF-α ([2]; 20 μg/ml): 2114 pg/mL; TNF-α induction (in words) [2]: induced high levels of TNF-α; IL6 ([3]; 1 μg/ml): 171.6 pg/mL; IL6 ([3]; 5 μg/ml): 447.6 pg/mL; IL6 ([3]; 20 μg/ml): 752.4 pg/mL; IL-6 secretion (in words) [3]: able to induce IL-6 secretion
2 | CCCCCCCCCCCC(=O)O[C@H](CCCCCCCCCCC)CC(=O)N[C@H]1[C@H](OC[C@H]2O[C@H](O)[C@H](NC(=O)C[C@H](O)CCCCCCCCCCC)[C@@H](O)[C@@H]2O)O[C@H](CO)[C@@H](OP(=O)(O)O)[C@@H]1O [compound 16, 2-Deoxy-6-O-[2-deoxy-4-O-(dihydroxyphosphoryl)-2-[(R)-3-dodecanoyloxytetradecanoylamino]-β-D-glucopyranosy]-2-[(R)-3-hydroxytetradecanoylamino]-α-D-glucopyranose] | 1.75 | 1.68 | 1.62 | 1.66 | 1.60 | 1.63 | 1.90 | 0.07 | 0.09 | 0.15 | 0.12 | 0.15 | 0.19 | 0.27 | weaker | 0.15 | 0.13 | 0.15 | 0.16 | 0.17 | Optical density read at 625 nm, mean of duplicates ([1]; 3333 ng/ml): 0.18 OD; Optical density read at 625 nm, mean of duplicates ([1]; 10000 ng/ml): 0.22 OD; TNF-α ([2]; 0.2 μg/ml): 0.69 pg/mL; TNF-α ([2]; 2 μg/ml): 49 pg/mL; TNF-α ([2]; 20 μg/ml): 1705 pg/mL; TNF-α induction (in words) [2]: induced high levels of TNF-α; IL6 ([3]; 1 μg/ml): 81.1 pg/mL; IL6 ([3]; 5 μg/ml): 473.3 pg/mL; IL6 ([3]; 20 μg/ml): 1348.2 pg/mL; IL-6 secretion (in words) [3]: able to induce IL-6 secretion; IL-6 induced ([3]; up to, doses to 20 μg/ml): up to 1348 μg/ml
